Values after ≈ are worked out from the molar mass of the structure shown.
Key:
Type in all cases: functional
Conditions in all cases: read-out: ED50 (the source's name)
P388 = test: Cytotoxicity against mouse P388 cells by MTT assay
KB = test: Cytotoxicity against human KB cells by MTT assay
A549 = test: Cytotoxicity against human A549 cells by MTT assay
HT-29 = test: Cytotoxicity against human HT-29 cells by MTT assay

Structure (SMILES) | EC50 (P388) | EC50 (KB) | EC50 (A549) | EC50 (HT-29)
CCCC(=O)O[C@H]1C[C@H](OC(C)=O)[C@@]2(C)[C@H]([C@H]1C)[C@@H](OC(C)=O)[C@]13O[C@@]1(C)C(=O)O[C@H]3/C=C(C)\C=C\[C@@H]2OC(C)=O [EXCAVATOLIDE F] | 6.2 µg/mL (≈ 10.8 µM) | 7 µg/mL (≈ 12.1 µM) | 5.2 µg/mL (≈ 9.02 µM) | 5.5 µg/mL (≈ 9.54 µM)
CCCC(=O)O[C@H]1C[C@H](OC(C)=O)[C@@]2(C)[C@H]([C@H]1C)[C@@H](OC(C)=O)[C@]13O[C@@]1(C)C(=O)O[C@H]3/C=C(/C)C[C@H](OC(=O)CCC)[C@H]2OC(C)=O [EXCAVATOLIDE H] | > 50 µg/mL | > 50 µg/mL | > 50 µg/mL | > 50 µg/mL
CC(=O)O[C@H]1C[C@H](OC(C)=O)[C@@]2(C)[C@H]([C@H]1C)[C@@H](OC(C)=O)[C@]13O[C@@]1(C)C(=O)O[C@H]3/C=C(/C)C[C@H](OC(C)=O)[C@H]2OC(C)=O [EXCAVATOLIDE K] | 0.9 µg/mL (≈ 1.48 µM) | 3.3 µg/mL (≈ 5.42 µM) | 3 µg/mL (≈ 4.93 µM) | 1.3 µg/mL (≈ 2.14 µM)
CCCC(=O)O[C@H]1C/C(C)=C\[C@@H]2OC(=O)[C@]3(C)O[C@]23[C@H](OC(C)=O)[C@H]2[C@@H](C)[C@@H](OC(C)=O)C[C@H](OC(C)=O)[C@]2(C)[C@@H]1OC(C)=O [EXCAVATOLIDE I] | > 50 µg/mL | > 50 µg/mL | > 50 µg/mL | > 50 µg/mL
CC(=O)O[C@H]1C/C(C)=C\[C@@H]2OC(=O)[C@]3(C)O[C@]23[C@H](O)[C@H]2[C@@H](C)[C@@H](O)C[C@H](OC(C)=O)[C@]2(C)[C@@H]1O [EXCAVATOLIDE M] | 0.001 µg/mL (≈ 0.00207 µM) | 1 µg/mL (≈ 2.07 µM) | 0.1 µg/mL (≈ 0.207 µM) | 2.2 µg/mL (≈ 4.56 µM)
CC(=O)O[C@H]1C[C@H](OC(C)=O)[C@@]2(C)[C@H]([C@H]1C)[C@@H](OC(C)=O)[C@]13O[C@@]1(C)C(=O)O[C@H]3/C=C(/C)CC[C@H]2OC(C)=O [EXCAVATOLIDE G] | 15.7 µg/mL (≈ 28.5 µM) | > 50 µg/mL | 22.8 µg/mL (≈ 41.4 µM) | > 50 µg/mL
CCCC(=O)O[C@H]1C[C@H](OC(C)=O)[C@@]2(C)[C@H]([C@H]1C)[C@@H](OC(C)=O)[C@]13O[C@@]1(C)C(=O)O[C@H]3/C=C(/C)C[C@H](OC(C)=O)[C@H]2OC(C)=O [EXCAVATOLIDE J] | 3.8 µg/mL (≈ 5.97 µM) | 6.5 µg/mL (≈ 10.2 µM) | 5.2 µg/mL (≈ 8.17 µM) | 5.2 µg/mL (≈ 8.17 µM)

Source: ChEMBL document CHEMBL1141810, “Excavatolides F-M, new briarane diterpenes from the gorgonian Briareum excavatum” (1999)
